Structures can show the parent of a compound that is named as a salt.
Key:
[1] = Salt screening experiments (PXRD result); format: physicochemical; conditions: S-5-MAPB Pure Enantiomer (Pattern 1A Enantiomer) + counterion 1:1 molar ratio, 40° C.
DAT = DAT (Homo sapiens (Human), UniProt Q01959); experiment: hDAT release assay in CHO cells ([3H]dopamine); conditions: EC50 DAT (Mean ± SEM, nM), CHO cells expressing hDAT
SERT = SERT (Homo sapiens (Human), UniProt P31645); experiment: hSERT release assay in CHO cells ([3H]serotonin); conditions: EC50 SERT (Mean ± SEM, nM), CHO cells expressing hSERT
5-HT1BR = 5-HT1BR (Homo sapiens (Human), UniProt P28222); experiment: 5-HT1BR cAMP secondary messenger agonist assay (HitHunter, CHO-K1); format: cell-based; conditions: for EC50: 5-HT1BR EC50 (μM)
Source text: The 5-HT1BR cAMP secondary messenger agonist assay used a panel of CHO-K1 cell lines stably expressing non-tagged GPCRs that endogenously signal through cAMP. Hit Hunter® cAMP assays monitored the activation of a GPCR via Gi and Gs secondary messenger signaling in a homogenous, non-imaging assay format using DiscoverX Enzyme Fragment Complementation (EFC) with β-galactosidase as the functional endpoint.
The enzyme was split into two complementary portions: Enzyme Acceptor (EA) and Enzyme Donor (ED). Exogenously introduced ED fused to cAMP (ED-cAMP) competed with endogenously generated cAMP for binding to an anti-cAMP-specific antibody. Active β-galactosidase was formed by complementation of exogenous EA to any unbound ED-cAMP.
Cell lines were expanded from freezer stocks according to standard procedures. Cells were seeded in a total volume of 20 μL into white walled, 384-well microplates and incubated at 37° C. for the appropriate time prior to testing. cAMP modulation was determined using the DiscoverX HitHunter cAMP XS+ assay.
For agonist determination, cells were incubated with sample (in the presence of EC80 forskolin to induce response if measuring Gi secondary messenger signaling). Media was aspirated from cells and replaced with 15 μL 2:1 HBSS/10 mM Hepes:cAMP XS+ Ab reagent. Intermediate dilution of sample stocks was performed to generate 4×sample in assay buffer (optionally containing 4×EC80 forskolin). 5 μL of 4×sample was added to cells and incubated at 37° C. or room temperature for 30 or 60 minutes, as appropriate. Final assay vehicle concentration was 1%.

[2] = biological target: human 5-HT transporter (hSERT) (Homo sapiens (Human), UniProt P31645); experiment: Human serotonin transporter  assay ([3H]imipramine radioligand, CHO cells); format: binding; conditions: for IC50: SERT IC50 (μM), 2 nM [3H]imipramine; for Ki: SERT Ki (μM), Cheng Prusoff equation
Description: Benzofuran derivatives were evaluated for inhibiting the human 5-HT transporter (hSERT) as expressed in CHO cells using an antagonist radioligand assay (Tatsumi, M. et al. (1999), Eur. J Pharmacol., 368: 277-283). […] Test compounds were assayed in three trials at […], and 0.94868 μM.

[3] = biological target: T1, serotonin (5-HT) transporter (SERT) (Rattus norvegicus (Rat), UniProt P31652); experiment: Rat synaptosome SERT [3H]5-HT release assay; conditions: [3H]5-HT release via SERT EC50 (nM), 5 nM [3H]5-HT
[4] = biological target: T1, serotonin (5-HT) transporter (SERT); experiment: Rat synaptosome SERT [3H]5-HT uptake inhibition assay; conditions: Inhibition of [3H]5-HT Uptake at SERT IC50 (nM), 5 nM [3H]5-HT

Compound | PXRD Result ([1]; solvent Acetone) | PXRD Result ([1]; solvent MeOH:water 90:10) | PXRD Result ([1]; solvent THF) | EC50 (5-HT1BR) [µM] | other results
CS(=O)(=O)O [Methane Sulfonic] | N/A (gel) | N/A (gel) | N/A (gel) | – | PXRD Result ([1]; solvent EtOH:water 90:10): N/A (gel)
NCCCC[C@H](N)C(=O)O [L-Lysine] | N/A (gel) | N/A (gel) | L-Lysine | – | PXRD Result ([1]; solvent EtOH:water 90:10): N/A (gel)
CN[C@@H](C)Cc1ccc2occc2c1 [75% S-5-MAPB] | – | – | – | – | EC50 (DAT): 632 ± 113 nM; EC50 (SERT): 80 ± 7 nM
CNC(C)C(=O)c1ccc2occc2c1 (racemic) [rac-BK-5-MAPB, 1-(benzofuran-5-yl)-2-(methylamino)propan-1-one hydrochloride] | – | – | – | 0.14 | Hill Coef. (5-HT1BR): 0.91
CCC(NC)C(=O)c1ccc2ccoc2c1 (single isomer, unassigned; (-)) [(−)-BK-6-MBPB, 1-(benzofuran-6-yl)-2-(methylamino)butan-1-one] | – | – | – | 7.52 | IC50 [2]: 3.7 µM; Ki [2]: 1.7 µM; Hill Coef. (5-HT1BR): 1.9551
CNC(C)C(=O)c1ccc2ccoc2c1 (racemic) [rac-BK-6-MAPB, 1-(benzofuran-6-yl)-2-(methylamino)propan-1-one hydrochloride] | – | – | – | 0.537 | Hill Coef. (5-HT1BR): 0.99
CCC(NC)C(=O)c1ccc2occc2c1 (single isomer, unassigned; (+)) [(+)-BK-5-MBPB, 1-(benzofuran-5-yl)-2-(methylamino) butan-1-one] | – | – | – | > 30 | IC50 [2]: 6.5 µM; Ki [2]: 3 µM
CCC(NC)C(=O)c1ccc2ccoc2c1 (racemic) [rac-BK-6-MBPB, 1-(benzofuran-6-yl)-2-(methylamino)butan-1-one hydrochloride] | – | – | – | > 30 | –
O=S(=O)(O)O [Compound H2SO4] | N/A (gel) | N/A (gel) | N/A (gel) | – | PXRD Result ([1]; solvent EtOH:water 90:10): N/A (gel)
O=C(O)CCC(=O)O [Succinic] | N/A (gel) | N/A (gel) | N/A (gel) | – | PXRD Result ([1]; solvent EtOH:water 90:10): N/A (gel)
Fumaric | N/A (gel) | N/A (gel) | N/A (gel) | – | –
O=P(O)(O)O [Compound H3PO4] | – | N/A (gel) | – | – | –
CNC(C)C(=O)c1ccc2ccoc2c1 (single isomer, unassigned; (-)) [(−)-BK-6-MAPB, 1-(benzofuran-6-yl)-2-(methylamino) propan-1-one] | – | – | – | 0.288 | IC50 [2]: 12 µM; Ki [2]: 5.4 µM; EC50 [3]: 72.2 ± 16.6 nM; Hill Coef. (5-HT1BR): 0.8339; IC50 [4]: 275 ± 13 nM
CNC(C)C(=O)c1ccc2ccoc2c1 (single isomer, unassigned; (+)) [(+)-BK-6-MAPB, 1-(benzofuran-6-yl)-2-(methylamino) propan-1-one] | – | – | – | > 10 | EC50 [3]: 1280 ± 268 nM; IC50 [4]: 5470 ± 424 nM

— US11767305B2, “Advantageous benzofuran compositions for mental disorders or enhancement” (Tactogen Inc, priority 2020, dated 2023)
